Source: patent US20230392127A1, “METHOD FOR CONSTRUCTION OF ATOPIC DERMATITIS MODEL BY USING PLURIPOTENT STEM CELL-DERIVED SKIN ORGANOID” (KANGSTEM BIOTECH CO., LTD., priority 2020, published 2023)

How the values were obtained:
[1] = tested on: induced pluripotent stem cell-derived skin organoids; assay: Skin organoid size and cartilage formation after Wnt signaling pathway activation (brightfield images); format: cell-based, human
Protocol: A skin organoid was cultured based on the literature disclosing an existing skin organoid differentiation protocol using induced pluripotent stem cell lines (Lee, J. et al. Hair-bearing human skin generated entirely from pluripotent stem cells. Nature 582, 399-404(2020)). The induced pluripotent stem cell colony was separated into small cell populations using ReLeSR™ (Stem Cell Technology) and then separated into single cells using Accutase (ThermoFisher). For embryoid body formation, 1000 single cells were aliquoted into each well of a U-bottom low-attachment 96-well plate (Corning). Essential 8 (Gibco) supplemented with Y-27632 (20 μM) was used as an embryoid body culture solution. The single cells were cultured for 2 days until the embryoid body grew to a size of 300 to 500 μm. On day 2 of differentiation, the formed embryoid bodies were transferred to a culture solution including 2% Matrigel (Matrigel; Corning), 10 μM SB431542 (Tocris), 4 ng/ml FGF2 (PeproTech) and 15 ng/ml BMP4 (PeproTech) for non-neural ectoderm differentiation induction. […] The skin organoid to be analyzed was photographed with an EVOS XL Core brightfield system microscope (Thermo Fisher) at ×40 magnification. […]

[2] = tested on: cartilage expression markers COL2A, ACAN, and SOX9; assay: Real-time PCR of cartilage expression markers in skin organoids; format: cell-based, human; settings: skin organoids on day 69; real-time PCR normalized to GAPDH; CHIR(+) vs CHIR(-); FIG. 8
Protocol: As a method for evaluating gene expression, cells were lysed and genes were extracted using a lysis buffer, and gene expression was quantified using RT-PCR. To evaluate gene expression, total RNA was isolated with an RNeasy kit (Qiagen, Cat. No. 74106) and cDNA was prepared according to the manufacturer's instructions using Reverse Transcriptase III (Thermo Fisher Scientific, Cat. No. 4368814). Real-time PCR was performed using SRBR Green Master Mix (Thermo Fisher Scientific, Cat. No. A25776) and detection was performed using a Step One Plus Real-time PCR system (Applied Biosystems). The expression of genes was normalized to the expression of glyceraldehyde-3-phosphate dehydrogenase (GAPDH). The degree of gene expression was evaluated using primers specific for COL2A, ACAN, and SOX9 mRNAs.

Cc1c[nH]c(-c2cnc(NCCNc3ccc(C#N)cn3)nc2-c2ccc(Cl)cc2Cl)n1 [CHIR-99021]
cartilage formation in skin organoids ([1]; 0.5 to 8 μM added on day 6, organoids on days 38, 65 and 85, vs CHIR(-), FIG. 7): cartilage was not formed | sizes of the organoids ([1]; 0.5 to 8 μM added to culture solution on day 6 of differentiation, compared to skin organoids generated by the existing method (CHIR(-)), FIGS. 6 and 7): remarkably increased | gene expression level of cartilage expression marker ACAN [2]: remarkably reduced | gene expression level of cartilage expression marker COL2A [2]: remarkably reduced | gene expression level of cartilage expression marker SOX9 [2]: remarkably reduced
